From US8741897B2, “Glucocorticoid mimetics, methods of making them, pharmaceutical compositions and uses thereof” (Boehringer Ingelheim Pharmaceuticals Inc., priority 2003, dated 2014)

Experiments:
[1] = molecular target: T1, human glucocorticoid receptor (GR) complex (Homo sapiens, UniProt P04150); assay: Glucocorticoid receptor competitive binding assay (fluorescence polarization, TAMRA-labeled dexamethasone probe); conditions: compounds of Formula (IA)
T1 construct: made in house; host or cells: insect expression system (baculovirus lysate)
T1 sequence (P04150 1-777): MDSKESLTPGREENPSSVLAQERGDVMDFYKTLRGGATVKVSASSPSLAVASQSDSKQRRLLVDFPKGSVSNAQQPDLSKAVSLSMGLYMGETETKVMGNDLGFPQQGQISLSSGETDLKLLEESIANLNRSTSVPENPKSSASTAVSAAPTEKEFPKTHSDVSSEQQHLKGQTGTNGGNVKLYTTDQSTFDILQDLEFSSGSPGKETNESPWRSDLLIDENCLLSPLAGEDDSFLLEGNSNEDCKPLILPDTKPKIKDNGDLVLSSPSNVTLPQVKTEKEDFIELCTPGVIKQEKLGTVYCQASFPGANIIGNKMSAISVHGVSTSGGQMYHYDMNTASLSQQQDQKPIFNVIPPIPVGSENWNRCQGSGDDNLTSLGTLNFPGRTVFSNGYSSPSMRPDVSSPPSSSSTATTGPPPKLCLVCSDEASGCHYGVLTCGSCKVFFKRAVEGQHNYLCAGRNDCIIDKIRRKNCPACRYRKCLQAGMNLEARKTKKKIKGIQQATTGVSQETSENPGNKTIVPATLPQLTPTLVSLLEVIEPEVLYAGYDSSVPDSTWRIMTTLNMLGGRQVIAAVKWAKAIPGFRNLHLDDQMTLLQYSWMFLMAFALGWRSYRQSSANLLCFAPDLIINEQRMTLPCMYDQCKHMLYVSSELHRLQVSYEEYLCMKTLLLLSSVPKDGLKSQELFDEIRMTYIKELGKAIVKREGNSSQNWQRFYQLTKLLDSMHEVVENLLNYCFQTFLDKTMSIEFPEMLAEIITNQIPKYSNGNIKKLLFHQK
Method in brief: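 Fluorescence-polarization competition against 15 nM TAMRA-dexamethasone (stock added to the mix) for human GR complex from baculovirus lysate diluted 1:170. Buffer: 10 mM TES, 50 mM KCl, 20 mM Na2MoO4, 1.5 mM EDTA, 0.04% CHAPS, 10% glycerol, 1 mM DTT, pH 7.4. IC50 from 4-parameter logistic fit.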

[2] = tested on: glucocorticoid receptor function; assay: one or more of the above assays (GR binding and glucocorticoid receptor cell assays: aromatase, IL-6, TAT, MMTV-Luc, IL-8, ICAM-Luc); assay type: cell-based; conditions: assay not specified per compound

Structure (SMILES): COc1ccc(F)cc1C(C)(C)CC(O)(Cc1cc2cc(C(F)(F)F)ncc2[nH]1)C(F)(F)F (stereo not shown) [1,1,1-Trifluoro-4-(5-fluoro-2-methoxyphenyl)-4-methyl-2-(5-trifluoromethyl-1H-pyrrolo[2,3-c]pyridin-2-ylmethyl)pentan-2-ol]
- activity in the GR binding assay [1]: potent activity
- activity as agonists of the glucocorticoid receptor function in one or more of the above assays [2]: potent agonists

Structure (SMILES): COc1ccc(F)cc1C(C)(C)CC(O)(c1c(F)ccc2c(C)ccnc12)C(F)(F)F (stereo not shown) [1,1,1-Trifluoro-4-(5-fluoro-2-methoxyphenyl)-2-(7-fluoro-4-methylquinolin-8-yl)-4-methylpentan-2-ol]
- activity in the GR binding assay [1]: potent activity
- activity as agonists of the glucocorticoid receptor function in one or more of the above assays [2]: potent agonists

Structure (SMILES): COc1ccc(F)cc1C(C)(C)CC(O)(Cc1cc2c(C#N)nccc2[nH]1)C(F)(F)F (stereo not shown) [2-[4-(5-Fluoro-2-methoxyphenyl)-2-hydroxy-4-methyl-2-trifluoromethylpentyl]-1H-pyrrolo[3,2-c]pyridine-4-carbonitrile]
- activity in the GR binding assay [1]: potent activity
- activity as agonists of the glucocorticoid receptor function in one or more of the above assays [2]: potent agonists

Structure (SMILES): CC(C)(CC(O)(Cc1cc2ccccc2[nH]1)C(F)(F)F)c1ccccc1F (stereo not shown) [1,1,1-Trifluoro-4-(2-fluorophenyl)-2-(1H-indol-2-ylmethyl)-4-methylpentan-2-ol]
- activity in the GR binding assay [1]: potent activity
- activity as agonists of the glucocorticoid receptor function in one or more of the above assays [2]: potent agonists

Structure (SMILES): COc1ccc(F)cc1C(C)(C)CC(O)(Cc1cc2cc(Cl)ncc2[nH]1)C(F)(F)F (stereo not shown) [1,1,1-Trifluoro-4-(5-fluoro-2-methoxyphenyl)-2-(5-chloro-1H-pyrrolo[2,3-c]pyridin-2-ylmethyl)-4-methylpentan-2-ol]
- activity in the GR binding assay [1]: potent activity
- activity as agonists of the glucocorticoid receptor function in one or more of the above assays [2]: potent agonists

Structure (SMILES): Cc1c(CC(O)(CC(C)(C)c2cc(Cl)cc3c2OCC3)C(F)(F)F)[nH]c2cnccc12 (stereo not shown) [4-(5-Chloro-2,3-dihydrobenzofuran-7-yl)-1,1,1-trifluoro-4-methyl-2-(3-methyl-1H-pyrrolo[2,3-c]pyridin-2-ylmethyl)pentan-2-ol]
- activity in the GR binding assay [1]: potent activity
- activity as agonists of the glucocorticoid receptor function in one or more of the above assays [2]: potent agonists

Structure (SMILES): COc1ccc(F)cc1C(C)(C)CC(O)(Cc1cc2cc(C(N)=O)ccc2[nH]1)C(F)(F)F (stereo not shown) [2-[4-(5-Fluoro-2-methoxyphenyl)-2-hydroxy-4-methyl-2-trifluoromethylpentyl]-1H-indole-5-carboxylic acid amide]
- activity in the GR binding assay [1]: potent activity
- activity as agonists of the glucocorticoid receptor function in one or more of the above assays [2]: potent agonists

Structure (SMILES): Cc1ccc(F)cc1C(C)(C)CC(O)(Cc1cc2ccnc(F)c2[nH]1)C(F)(F)F (stereo not shown) [1,1,1-Trifluoro-4-(5-fluoro-2-methylphenyl)-2-(7-fluoro-1H-pyrrolo[2,3-c]pyridin-2-ylmethyl)-4-methylpentan-2-ol]
- activity in the GR binding assay [1]: potent activity
- activity as agonists of the glucocorticoid receptor function in one or more of the above assays [2]: potent agonists

Structure (SMILES): COc1ccc(C)cc1C(C)(C)CC(O)(Cc1cc2ccccc2[nH]1)C(F)(F)F (stereo not shown) [1,1,1-Trifluoro-2-(1H-indol-2-ylmethyl)-4-(2-methoxy-5-methylphenyl)-4-methylpentan-2-ol]
- activity in the GR binding assay [1]: potent activity
- activity as agonists of the glucocorticoid receptor function in one or more of the above assays [2]: potent agonists

Structure (SMILES): Cc1ccc(O)c(C(C)(C)CC(O)(Cc2cc3ccccc3[nH]2)C(F)(F)F)c1 (stereo not shown) [4-Methyl-2-[4,4,4-trifluoro-3-hydroxy-3-(1H-indol-2-ylmethyl)-1,1-dimethylbutyl]phenol]
- activity in the GR binding assay [1]: potent activity
- activity as agonists of the glucocorticoid receptor function in one or more of the above assays [2]: potent agonists

Structure (SMILES): CC(C)(CC(O)(Cc1ccnc(F)c1)C(F)(F)F)c1cc(F)ccc1O (stereo not shown) [4-Fluoro-2-[4,4,4-trifluoro-3-(2-fluoropyridin-4-ylmethyl)-3-hydroxy-1,1-dimethylbutyl]phenol]
- activity in the GR binding assay [1]: potent activity
- activity as agonists of the glucocorticoid receptor function in one or more of the above assays [2]: potent agonists
